Our source for the binding values is paper PMC6412119 (2019).

The subject of this assay is c-MYC Pu22-G10>T10 (DNA, G4) TGAGGGTGGTTAGGGTGGGTAA
Description: fluorescence light-up. The note with it: 100 mM KCl; 10 mM potassium phosphate pH 7.0; 0.5 μM each; weak response.

Turning to `C(=NNc1nc(Nc2ccccc2)nc(Nc2ccccc2)n1)c1c2ccccc2cc2ccccc12`, the binding result was “weak”.
